Results: patent US20210322327A1, “EXTRACELLULAR VESICLES COMPRISING STING-AGONIST” (Codiak BioSciences, Inc., priority 2018, published 2021)

Experiments:
[1] = test system: B16F10 murine melanoma cells; assay: B16F10 melanoma tumor growth, intratumoral injection; type: in vivo, C57BL/6 mice; conditions: for tumor growth compared to PBS: day 25
Procedure: To test this hypothesis, C57BL/6 mice were inoculated subcutaneously with 5×10^5 B16F10 murine melanoma cells (n=5 mice per group). Five, eight, and eleven days post-inoculation the mice were injected intratumorally with PBS, 20 μg ML RR-S2, 0.2 μg ML RR-S2, or 0.2 μg ML RR-S2 loaded in PTGFRN-overexpressing exosomes Tumor volumes were measured daily until day 39, and animals were sacrificed when tumor volume reached 2000 mm^3.

[2] = test system: human peripheral blood mononuclear cells (PBMCs); assay: IFNβ production in PBMCs treated with exosome-encapsulated or free STING agonist; type: cell-based; conditions: free STING agonists, human PBMCs overnight
Procedure: Exosome-encapsulated STING agonist and free STING agonist were tested for activity in human peripheral blood mononuclear cells (PBMCs). PBMCs were isolated from fresh human blood by centrifugation over a layer of Lymphoprep at 1000×g for 15 minutes. The resulting buffy coat was washed in PBS and counted. PBMCs were plated in 96-well U-bottom plates. Titrations of the exosome-encapsulated (Exo-STING agonist) or free STING agonist were prepared in a separate U-bottom plate to perform dose-response studies. The exosome-encapsulated or free STING agonist was added to the PBMCs and incubated at 37° C. overnight. General activation of PBMCs by the STING agonist was detected by measuring the amount of IFNβ in the supernatant. […] To understand which cell types in PBMCs are differentially affected by Exo-STING agonist, monocyte and dendritic cell activation was measured. […] Monocytes were robustly activated by the STING agonist alone with over 90% becoming activated at micromolar concentrations of the agonist. […]
HEK293SF cells overexpressing PTGFRN were grown in shake flasks and the resulting exosomes were purified by Optiprep™ density gradient ultracentrifugation as described in the Methods. […] Loading was quantified as described in Example 1. […] Activation of PBMCs by the STING agonists was detected by measuring the amount of IFNβ in the supernatant. […]

E.G7-OVA cells = assay: E.G7-OVA T-cell lymphoma tumor growth, intratumoral injection; type: in vivo, C57BL/6 mice
Procedure: To test this hypothesis, C57BL/6 mice were inoculated subcutaneously with 1×10^6 E.G7-OVA cells (ATCC®; CRL-2113™), a murine T-cell lymphoma cell line engineered to stably express OVA and allow for modeling antigen-specific T-cell responses in mice (n=5 mice per group). Ten, 13, and 16 days post-inoculation the mice were injected intratumorally with PBS, 20 μg ML RR-S2, 0.2 μg ML RR-S2, or 0.2 μg ML RR-S2 loaded in PTGFRN-overexpressing exosomes). […] Splenic T-cells from all groups were isolated and measured for OVA-specific reactivity as described in Example 11.

Row | Compound | tumor growth compared to PBS ([1]; 0.2 μg intratumoral days 5, 8, 11) | complete response (undetectable tumors at the site of inoculation) ([1]; 20 μg intratumoral) | tumor growth compared to PBS ([1]; 20 μg intratumoral days 5, 8, 11) | IFNβ induction [2] | tumor growth compared to PBS (E.G7-OVA cells; 0.2 μg intratumoral days 10, 13, 16) | tumor growth compared to PBS (E.G7-OVA cells; 20 μg intratumoral days 10, 13, 16)
1 | Nc1ncnc2c1ncn2[C@@H]1O[C@@H]2COP(O)(=S)O[C@@H]3C(O)[C@@H](COP(O)(=S)O[C@H]2[C@H]1O)O[C@H]3n1cnc2c(N)ncnc21 (stereo partly shown) [ML RR-S2 CDA] | moderately potentiated | three out of five | almost completely eliminated | induced IFNβ to a similar extent | moderately attenuated tumor growth | dramatically prevented tumor growth
2 | Nc1ncnc2c1ncn2[C@@H]1O[C@@H]2COP(=O)(S)O[C@H]3[C@@H](F)[C@H](n4cnc5c(=O)[nH]cnc54)O[C@@H]3COP(O)(=S)O[C@H]2[C@H]1F (stereo partly shown) [3-3 cAIMPdFSH, 3′3′-cAIMPdFSH] |  |  |  | induced IFNβ to a similar extent |  | 
